Measured values as given in patent US8889676B2, “3-ureidoisoquinolin-8-yl derivatives” (Actelion Pharmaceuticals Ltd., priority 2011, dated 2014).
Values after ≈ are worked out from the molar mass of the structure shown.

test system: S. pneumoniae ATCC 49619; experiment: Minimal inhibitory concentration (MIC) by broth microdilution (CLSI M7-A7); type: cell-based, Streptococcus pneumoniae; settings: Streptococcus pneumoniae, ATCC49619; cation-adjusted Mueller Hinton Broth supplemented with 3% (v/v) lysed horse blood; microdilution method
Method: Minimal inhibitory concentrations (MICs; mg/l) were determined in cation-adjusted MuellerHinton Broth (supplemented with 3% (v/v) lysed horse blood for testing Streptococcus pneumoniae) by a microdilution method following the description given in “Methods for Dilution Antimicrobial Susceptibility Tests for Bacteria that Grow Aerobically”, Approved standard, 7th ed., a Clinical and Laboratory Standards Institute (CLSI) Document M7-A7, Wayne, Pa., USA, 2006.

Row | MIC | SMILES
1 | 0.5 µg/mL (≈ 1.1 µM) | CCNC(=O)Nc1cc2c(-c3ccncc3)ccc(CNC(=O)OCc3cccnc3)c2cn1 [Example 42, [3-(3-ethyl-ureido)-5-pyridin-4-yl-isoquinolin-8-ylmethyl]-carbamic acid pyridin-3-ylmethyl ester]
2 | 4 µg/mL (≈ 12.7 µM) | CCNC(=O)NCc1cccc2cc(NC(=O)NCC)ncc12 [Example 43, 1-ethyl-3-{8-[(3-ethyl-ureido)-methyl]isoquinolin-3-yl}-urea]
3 | 8 µg/mL (≈ 23.5 µM) | C#CCOC(=O)N(C)Cc1cccc2cc(NC(=O)NCC)ncc12 [Example 44, [3-(3-ethyl-ureido)-isoquinolin-8-ylmethyl]-methyl-carbamic acid prop-2-ynyl ester]
4 | 8 µg/mL (≈ 19.6 µM) | CCNC(=O)Nc1cc2c(-c3ccncc3)ccc(CNC(=O)CC(=O)O)c2cn1 [Example 45, N-[3-(3-ethyl-ureido)-5-pyridin-4-yl-isoquinolin-8-ylmethyl]-malonamic acid]
5 | 2 µg/mL (≈ 4.19 µM) | CCNC(=O)Nc1cc2c(-c3ccncc3)ccc(CNC(=O)CCC(=O)OC(C)(C)C)c2cn1 [Example 46, N-[3-(3-ethyl-ureido)-5-pyridin-4-yl-isoquinolin-8-ylmethyl]-succinamic acid tert-butyl ester]
6 | 1 µg/mL (≈ 2.09 µM) | CCNC(=O)Nc1cc2c(-c3ccncc3)ccc(CNC(=O)CNC(=O)OC(C)(C)C)c2cn1 [Example 47, ({[3-(3-ethyl-ureido)-5-pyridin-4-yl-isoquinolin-8-ylmethyl]-carbamoyl}-methyl)-carbamic acid tert-butyl ester]
7 | 2 µg/mL (≈ 4.06 µM) | CCNC(=O)Nc1cc2c(-c3ccncc3)ccc(CNC(=O)CN(C)C(=O)OC(C)(C)C)c2cn1 [Example 48, ({[3-(3-ethyl-ureido)-5-pyridin-4-yl-isoquinolin-8-ylmethyl]-carbamoyl}-methyl)-methyl-carbamic acid tert-butyl ester]
8 | 0.5 µg/mL (≈ 1.02 µM) | CCNC(=O)Nc1cc2c(-c3ccncc3)ccc(CNC(=O)CCNC(=O)OC(C)(C)C)c2cn1 [Example 49, (2-{[3-(3-ethyl-ureido)-5-pyridin-4-yl-isoquinolin-8-ylmethyl]-carbamoyl}-ethyl)-carbamic acid tert-butyl ester]
9 | 4 µg/mL | CCNC(=O)Nc1cc2c(-c3ccncc3)ccc(CNC(=O)CN)c2cn1.Cl [Example 50, 2-amino-N-[3-(3-ethyl-ureido)-5-pyridin-4-yl-isoquinolin-8-ylmethyl]-acetamide hydrochloride]
10 | 8 µg/mL | CCNC(=O)Nc1cc2c(-c3ccncc3)ccc(CNC(=O)CCN)c2cn1.Cl [Example 51, 3-amino-N-[3-(3-ethyl-ureido)-5-pyridin-4-yl-isoquinolin-8-ylmethyl]-propionamide hydrochloride]
11 | 2 µg/mL (≈ 4.92 µM) | CCNC(=O)Nc1cc2c(-c3ccncc3)ccc(CNC(=O)CC(N)=O)c2cn1 [Example 52, N-[3-(3-ethyl-ureido)-5-pyridin-4-yl-isoquinolin-8-ylmethyl]-malonamide]
12 | 4 µg/mL (≈ 9.51 µM) | CCNC(=O)Nc1cc2c(-c3ccncc3)ccc(CNC(=O)CC(=O)NC)c2cn1 [Example 53, N-[3-(3-ethyl-ureido)-5-pyridin-4-yl-isoquinolin-8-ylmethyl]-N′-methyl-malonamide]
13 | 4 µg/mL (≈ 9.51 µM) | CCNC(=O)Nc1cc2c(-c3ccncc3)ccc(CNC(=O)CCC(N)=O)c2cn1 [Example 54, N-[3-(3-ethyl-ureido)-5-pyridin-4-yl-isoquinolin-8-ylmethyl]-succinamide]
14 | 8 µg/mL (≈ 18.4 µM) | CCNC(=O)Nc1cc2c(-c3ccncc3)ccc(CNC(=O)CCC(=O)NC)c2cn1 [Example 55, N-[3-(3-ethyl-ureido)-5-pyridin-4-yl-isoquinolin-8-ylmethyl]-N′-methyl-succinamide]
15 | 1 µg/mL (≈ 1.97 µM) | CCNC(=O)Nc1cc2c(-c3ccncc3)ccc(CNC(=O)CCCNC(=O)OC(C)(C)C)c2cn1 [Example 56, (3-{[3-(3-ethyl-ureido)-5-pyridin-4-yl-isoquinolin-8-ylmethyl]-carbamoyl}-propyl)-carbamic acid tert-butyl ester]
16 | 0.5 µg/mL (≈ 1.24 µM) | CCNC(=O)Nc1cc2c(-c3ccncc3)ccc(CNC(=O)CC3CC3)c2cn1 [Example 57, 2-cyclopropyl-N-[3-(3-ethyl-ureido)-5-pyridin-4-yl-isoquinolin-8-ylmethyl]-acetamide]
17 | 2 µg/mL (≈ 3.95 µM) | CCNC(=O)Nc1cc2c(-c3ccncc3)ccc(CNC(=O)CCN(C)C(=O)OC(C)(C)C)c2cn1 [Example 58, (2-{[3-(3-ethyl-ureido)-5-pyridin-4-yl-isoquinolin-8-ylmethyl]-carbamoyl}-ethyl)-methyl-carbamic acid tert-butyl ester]
18 | 0.5 µg/mL (≈ 1.32 µM) | CCNC(=O)Nc1cc2c(-c3ccncc3)ccc(CNC(=O)CC)c2cn1 [Example 59, N-[3-(3-ethyl-ureido)-5-pyridin-4-yl-isoquinolin-8-ylmethyl]-propionamide]
19 | 8 µg/mL (≈ 18.6 µM) | CCNC(=O)Nc1cc2c(-c3ccncc3)ccc(CNC(=O)Cc3c[nH]cn3)c2cn1 [Example 60, N-[3-(3-ethyl-ureido)-5-pyridin-4-yl-isoquinolin-8-ylmethyl]-2-(1H-imidazol-4-yl)-acetamide]

Row | MIC | SMILES
20 | 4 µg/mL (≈ 10.5 µM) | CCNC(=O)Nc1cc2c(-c3ccncc3)ccc(CNC(=O)CO)c2cn1 [Example 61, N-[3-(3-ethyl-ureido)-5-pyridin-4-yl-isoquinolin-8-ylmethyl]-2-hydroxy-acetamide]
21 | 1 µg/mL (≈ 1.92 µM) | CCNC(=O)Nc1cc2c(-c3ccncc3)ccc(CNC(=O)CCCN(C)C(=O)OC(C)(C)C)c2cn1 [Example 62, (3-{[3-(3-ethyl-ureido)-5-pyridin-4-yl-isoquinolin-8-ylmethyl]-carbamoyl}propyl)-methyl-carbamic acid tert-butyl ester]
22 | 1 µg/mL (≈ 2.45 µM) | CCNC(=O)Nc1cc2c(-c3ccncc3)ccc(CNC(=O)CCOC)c2cn1 [Example 63, N-[3-(3-ethyl-ureido)-5-pyridin-4-yl-isoquinolin-8-ylmethyl]-3-methoxy-propionamide]
23 | 0.5 µg/mL (≈ 1.38 µM) | CCNC(=O)Nc1cc2c(-c3ccncc3)ccc(CNC(C)=O)c2cn1 [Example 64, N-[3-(3-ethyl-ureido)-5-pyridin-4-yl-isoquinolin-8-ylmethyl]-acetamide]
24 | 0.25 µg/mL (≈ 0.642 µM) | CCNC(=O)Nc1cc2c(-c3ccncc3)ccc(CNC(=O)C3CC3)c2cn1 [Example 65, cyclopropanecarboxylic acid [3-(3-ethyl-ureido)-5-pyridin-4-yl-isoquinolin-8-ylmethyl]-amide]
25 | 0.25 µg/mL (≈ 0.617 µM) | CCNC(=O)Nc1cc2c(-c3ccncc3)ccc(CNC(=O)CC(C)C)c2cn1 [Example 66, N-[3-(3-ethyl-ureido)-5-pyridin-4-yl-isoquinolin-8-ylmethyl]-3-methyl-butyramide]
26 | 0.5 µg/mL (≈ 1.28 µM) | CCNC(=O)Nc1cc2c(-c3ccncc3)ccc(CNC(=O)C(C)C)c2cn1 [Example 67, N-[3-(3-ethyl-ureido)-5-pyridin-4-yl-isoquinolin-8-ylmethyl]-isobutyramide]
27 | 4 µg/mL (≈ 10.2 µM) | CCNC(=O)Nc1cc2c(-c3ccncc3)ccc(CNC(=O)CCO)c2cn1 [Example 68, N-[3-(3-ethyl-ureido)-5-pyridin-4-yl-isoquinolin-8-ylmethyl]-3-hydroxy-propionamide]
28 | 0.25 µg/mL (≈ 0.623 µM) | C#CCCC(=O)NCc1ccc(-c2ccncc2)c2cc(NC(=O)NCC)ncc12 [Example 69, pent-4-ynoic acid [3-(3-ethyl-ureido)-5-pyridin-4-yl-isoquinolin-8-ylmethyl]-amide]
29 | 0.5 µg/mL (≈ 1.16 µM) | CCNC(=O)Nc1cc2c(-c3ccncc3)ccc(CNC(=O)Cn3cccn3)c2cn1 [Example 70, N-[3-(3-ethyl-ureido)-5-pyridin-4-yl-isoquinolin-8-ylmethyl]-2-pyrazol-1-yl-acetamide]
30 | 2 µg/mL (≈ 4.81 µM) | CCNC(=O)Nc1cc2c(-c3ccncc3)ccc(CNC(=O)c3cnc[nH]3)c2cn1 [Example 71, 3H-imidazole-4-carboxylic acid [3-(3-ethyl-ureido)-5-pyridin-4-yl-isoquinolin-8-ylmethyl]-amide]
31 | 0.5 µg/mL (≈ 1.2 µM) | CCNC(=O)Nc1cc2c(-c3ccncc3)ccc(CNC(=O)c3cc[nH]n3)c2cn1 [Example 72, 1H-pyrazole-3-carboxylic acid [3-(3-ethyl-ureido)-5-pyridin-4-yl-isoquinolin-8-ylmethyl]-amide]
32 | 2 µg/mL (≈ 4.81 µM) | CCNC(=O)Nc1cc2c(-c3ccncc3)ccc(CNC(=O)c3cn[nH]c3)c2cn1 [Example 73, 1H-pyrazole-4-carboxylic acid [3-(3-ethyl-ureido)-5-pyridin-4-yl-isoquinolin-8-ylmethyl]-amide]
33 | 0.25 µg/mL (≈ 0.602 µM) | CCNC(=O)Nc1cc2c(-c3ccncc3)ccc(CNC(=O)c3ncc[nH]3)c2cn1 [Example 74, 1H-imidazole-2-carboxylic acid [3-(3-ethyl-ureido)-5-pyridin-4-yl-isoquinolin-8-ylmethyl]-amide]
34 | 0.25 µg/mL (≈ 0.669 µM) | C#CC(=O)NCc1ccc(-c2ccncc2)c2cc(NC(=O)NCC)ncc12 [Example 75, propynoic acid [3-(3-ethyl-ureido)-5-pyridin-4-yl-isoquinolin-8-ylmethyl]-amide]
35 | 0.25 µg/mL (≈ 0.593 µM) | CCNC(=O)Nc1cc2c(-c3ccncc3)ccc(CNC(=O)OC(C)(C)C)c2cn1 [Example 76, [3-(3-ethyl-ureido)-5-pyridin-4-yl-isoquinolin-8-ylmethyl]-carbamic acid tert-butyl ester]
36 | 0.5 µg/mL (≈ 1.23 µM) | CCNC(=O)Nc1cc2c(-c3ccncc3)ccc(CNC(=O)OC(C)C)c2cn1 [Example 77, [3-(3-ethyl-ureido)-5-pyridin-4-yl-isoquinolin-8-ylmethyl]-carbamic acid isopropyl ester]
37 | 4 µg/mL (≈ 9.16 µM) | CCNC(=O)Nc1cc2c(-c3ccncc3)ccc(CNC(=O)OCCN(C)C)c2cn1 [Example 78, [3-(3-ethyl-ureido)-5-pyridin-4-yl-isoquinolin-8-ylmethyl]-carbamic acid 2-dimethylamino-ethyl ester]
38 | 0.25 µg/mL (≈ 0.659 µM) | CCNC(=O)Nc1cc2c(-c3ccncc3)ccc(CNC(=O)OC)c2cn1 [Example 79, [3-(3-ethyl-ureido)-5-pyridin-4-yl-isoquinolin-8-ylmethyl]-carbamic acid methyl ester]
